Publication PMC3745399, “An NO Donor Approach to Neuroprotective and Procognitive Estrogen Therapy Overcomes Loss of NO Synthase Function and Potentially Thrombotic Risk” (PLoS ONE, 2013)
Like-named read-outs stand apart in the source and are kept apart here.

Columns and labels:
[1] = tested on: Ishikawa endometrial cancer cell line; test: ER-mediated transcriptional activity (antiestrogen) in Ishikawa cells; type: cell-based; details: read-out: antiestrogen potency IC50, ER-mediated transcriptional activity
[2] = tested on: C57Bl/6 mice or eNOS(−/−) mice; test: Step-through passive avoidance (STPA) memory model; type: in vivo, mouse; details: SERM 2 mg/kg; for reversal of scopolamine-induced memory deficit (STPA latency): scopolamine 1 mg/kg i.p., tested 24 h after training; for reversal of scopolamine-induced memory deficit in eNOS KO mice (STPA): scopolamine 1 mg/kg
Procedure: In this assay, memory is tested 24 h after training and since drugs are only administered during training, any side effects, such as sedation, are highly unlikely to confound the testing results. Furthermore, criteria for training are uniform across all treatment groups. Previously, we have shown NO-donors to reverse cognitive deficits induced by attenuation of cholinergic signaling, [51], [52], [53].
Amnestic memory deficit was induced by i.p. injection of either scopolamine (1 mg/kg) or L-NAME (50 mg/kg) 30 min prior to training in C57Bl/6 male mice. SERMs (2 mg/kg) were given 20 min prior to training and latency was assessed 24 h after training with animals being removed from the task if latency >300 s. All SERMs, except F-DMA, restored scopolamine-induced deficits in STPA in C57Bl/6 animals.
All experiments were performed either on 6–8 month old male C57B1/6 mice or eNOS(−/−) animals. Scopolamine (1 mg/kg) or L-NAME (50 mg/kg) were injected (i.p.) 30 min prior to training, while SERMs (2 mg/kg) were injected 20 min prior to training. Mice were placed in the light compartment of the light/dark box, and as soon as they entered the dark compartment, they received an electric shock (0.5 mA, 60 Hz for 2 seconds). This training was repeated until latency to enter the dark side reached 300 s. At 24 h post-training, animals were individually placed in the light compartment and the latency to enter the dark compartment was recorded with a 300 s cutoff. Details of this widely used assay of behavior have been discussed previously for NO-donor compounds [53], [54], [55].

[3] = tested on: hippocampal slices from 16-month old male 3×Tg mice; test: LTP in CA1 of hippocampal slices after theta burst stimulation; design: species or system mouse; details: 3×Tg slices; for enhancement of subsequent theta bursts during LTP induction: 100 nM; for end fEPSP: 100 nM added 30 min prior to TBS, untreated 3×Tg 97.0±6.4%, WT 134.7±10.3%
Procedure: LTP in the CA1 field of the hippocampus is a well-studied cellular model for learning and memory. […] At 16 months, an advanced age at which Alzheimer's-like neuropathology is well developed in these animals, studies on LTP have not previously been reported. Nevertheless, we observed a robust, reproducible deficit in LTP in these aged transgenic mice, with field excitatory post-synaptic potentials (fEPSP) showing an end fEPSP of 97.0±6.4% of baseline at 45 min post-TBS, compared to 134.7±10.3% observed in the wild type (WT) transgenic background controls (Fig. 3A,B).
Figure 3 Reversal of LTP deficit in aged 3×Tg mice by SERMs is GPR30 dependent. LTP was measured after TBS in the CA1 region of hippocampal sections from 16 month male 3×Tg mice or WT controls. Test compounds (SERMs 100 nM; G15 100 nM) were added 30 min prior to TBS. […] (C) Secondary analysis of theta bursts indicate action both during induction and stabilization of LTP, through a GPR30 dependent mechanism.
All experiments used 16-month old male 3×Tg transgenic or age-matched WT background controls. For electrophysiology, mice were rapidly decapitated, and brains were removed into an ice-cold aCSF solution (in mM: NaCl 124, KCl 3.0, KH2PO4 1.25, NaHCO3 25.7, D-glucose 10, L-ascorbate 2.0, MgSO4 2.5, and CaCl2 3.3) and sectioned on a tissue chopper into 400 µm sections. Slices were transported to a 37°C solution of aCSF, continuously bubbled with 95% O2/5% CO2, and allowed to recover at least 60 min before experimentation. After placement of a stimulation electrode in the Schaffer commissural fibers and recording electrodes with 2 M NaCl solution into the stratum radiatum of the CA1 area, stimulus intensity was set to evoke submaximal fEPSP and continuously monitored at 20 s intervals for at least 15 min to establish a stable baseline. SERMs (100 nM) and G15 (100 nM) were prepared fresh in perfusate and started at least 30 min before LTP induction to reach a new baseline after enhancement of basal synaptic transmission was observed. […] Resulting fEPSP was monitored at 20 s intervals for ∼60 min post TBS.

isolated rings of aortae = test: Aortic ring relaxation; design: species or system rat
Procedure: Isolated rings of aortae from male Sprague-Dawley rats (250–300 g) were prepared for isometric tension measurements and were equilibrated for 1 h at an optimal resting tension of 10 mN. Tissues were contracted submaximally with 0.3 µM phenylepinephrine, and after 10–15 m cumulative concentration-response curves for SERMs (0.01–30 µM) were obtained. Some aortic ring preparations were denuded of the endothelium, or were treated with 100 µM L-NAME, prior to assessment of SERM-induced relaxation responses.

[4] = NO levels (NOx) in hippocampus and plasma by chemiluminescence; type: in vivo, mouse; details: 2 mg/kg i.p., 1 h; for elevation of NOx in hippocampus / elevation of NOx in plasma: WT mice
Procedure: Brain and plasma NO levels were assessed by measuring metabolic oxidation products, NO2 ^−and NO3 ^− (NOx), using chemiluminescence detection.
Figure 5 Effects of SERM and NO-SERMon NO levels in plasma and brain of WT and eNOS (−/−) mice. Levels of NO were assessed by measuring breakdown products 1 h after i.p. injection of SERMs (2 mg/kg) using chemiluminescence detection.
All experiments were performed on 6–8 month male C57B1/6 mice (Charles River Laboratory) or eNOS(−/−) animals. Animals were injected (i.p.) at various time points before sacrifice at the doses specified. After euthanasia via CO2, plasma was collected, and cortices and hippocampi were collected after PBS perfusion and stored at −80°C. Tissue samples were weighed and extracted with methanol. Plasma samples were extracted with cold acetonitrile. Quantitative analysis of drug concentrations in plasma and brain used internal standards spiked into plasma and brain homogenates before liquid extraction with acetonitrile or methanol, and separation and measurement was performed with LC-MS/MS tandem mass spectrometry. The supernatant (deproteinized) was analyzed by chemiluminescence with SIEVERS 280i nitric oxide analyzer.

| SMILES | IC50 [1] [nM] | reversal of L-NAME-induced cognitive deficit (STPA latency) ([2]; C57Bl/6 male mice, L-NAME 50 mg/kg i.p.) | reversal of scopolamine-induced memory deficit (STPA latency) ([2]; C57Bl/6 male mice) | reversal of scopolamine-induced memory deficit in eNOS KO mice (STPA) [2] | enhancement of subsequent theta bursts during LTP induction [3] | end fEPSP [3] | EC50 (isolated rings of aortae; endothelium-denuded tissues, read-out: EC50 for relaxation, endothelium-denuded) [nM] | efficacy (maximal relaxation) (isolated rings of aortae; intact aortic rings) [% relaxation] | potency relative to DMA (isolated rings of aortae; intact aortic rings) | EC50 (isolated rings of aortae; intact aortic rings, read-out: EC50 for relaxation) [nM] | EC50 (isolated rings of aortae; tissues treated with L-NAME 100 µM, read-out: EC50 for relaxation, L-NAME) [nM] | elevation of NOx in hippocampus [4] | elevation of NOx in plasma [4] | NOx in hippocampus, eNOS(−/−) ([4]; eNOS(−/−) mice) | NOx in plasma, eNOS(−/−) ([4]; eNOS(−/−) mice) | end fEPSP with G15 ([3]; DMA 100 nM + G15 100 nM) [%] | effect on LTP with ODQ (sGC inhibitor) ([3]; ODQ 10 nM, variable interburst interval, preliminary) | EC50 (isolated rings of aortae; intact aortic rings contracted with phenylepinephrine, mean, S.D., read-out: EC50 for relaxation) [nM] | efficacy after endothelium removal or NOS inhibition (isolated rings of aortae; physical removal of the endothelium or L-NAME) |
| --- | --- | --- | --- | --- | --- | --- | --- | --- | --- | --- | --- | --- | --- | --- | --- | --- | --- | --- | --- |
| O=[N+]([O-])OCCCC1CCN(CCOc2ccc(Oc3c(-c4ccc(O)cc4)sc4cc(O)ccc34)cc2)CC1 [NO-DMA, 3-(1-(2-(4-(6-hydroxy-2-(4-ydroxyphenyl)benzo[b]thiophen-3-yloxy)phenoxy)ethyl)piperidin-4-yl)propyl nitrate] | 3.9 ± 1.3 | reversed by NO-DMA | complete reversal of the memory deficit | significantly improved memory | augmented | 144.2±5.2 % of baseline | 900 ± 690 | ~100 | at least ten-fold increased potency | 130 ± 90 | 1000 ± 540 | greater than twofold elevation | greater than twofold elevation | increase NOx significantly, relative to DMA | increase NOx significantly, relative to DMA |  |  |  |  |
| Oc1ccc(-c2sc3cc(O)ccc3c2Oc2ccc(OCCN3CCCCC3)cc2)cc1 [DMA, desmethylarzoxifene] | 0.1 ± 0.1 |  | complete reversal of the memory deficit | not influenced by treatment with DMA | augmented | 144.9±8.7 % of baseline |  | ~100 |  |  |  | greater than twofold elevation | greater than twofold elevation |  |  | 96.8±7.1 | ODQ blocks effect of DMA on LTP | 3500 ± 2500 | significant decrease in the efficacy |
